The nature of series [1]: Anatomical distribution of i.v. injected 125I-labeled peptides. As to conditions: C57BL/6 mice, 8 μg 125I-labeled peptide i.v., n = 2 per group. The format is in vivo. The protocol: Unconjugated fNLPNTL and FITC- fNLPNTL were reconstituted at a concentration of 4 mg/ml in DMSO. […] of the solution, corresponding to 100 μg of each peptide was further diluted in PBS to a final volume of 200 μl and incubated with carrier-free Na^125I for 1h at RT, using Iodogen as described by the manufacturer. The labeled peptides were separated from unbound ^125I by elution with PBS through PD-10 columns. The specific radioactivities were 0.98 x 10^6 cpm/μg and 0.12 x 10^6 cpm/μg for ^125I-FITC-fNLPNTL and ^125I-fNLPNTL, respectively.
Prior to experiments, mice were weighed and pre-warmed in a temperature controlled chamber to stimulate dilation of the tail veins. […] The amount of radioactivity was measured in all organs and in the blood sample. The radioactivity per total volume of blood was calculated considering that the average amount of blood in a mouse is approximately 58.5 ml per kg of bodyweight (according to the National Centre for the Replacement Refinement & Reduction of Animals in Research). The amount of tracer recovered was the sum of radioactivity of individual organs, carcass and the radioactivity calculated in total blood volume.
Fig 2 Anatomical distribution of i.v. administered fNLPNTL. […] Blood, internal organs and carcass were harvested and analyzed for radioactivity. […]

The subject of series [2] is mouse LSECs (mLSECs). Description: Endocytosis competition of FITC-fNLPNTL uptake, fluorescence microscopy. The format is cell-based. The following applies: primary mLSECs, 4 h serum starved, 100 μg/ml competitor pre-incubated 30 min, then 20 μg/ml FITC-fNLPNTL 60 min at 37°C. How it is done: Mouse Heps (mHeps) and LSECs (mLSECs) were prepared by collagenase (Liberase) perfusion of mouse livers, followed by a low-speed differential centrifugation to separate Heps, and density sedimentation of the non-Heps enriched in the supernatant, on 25%– 45% Percoll gradients to collect LSECs and Kupffer cells (KCs), as described. Mouse LSECs were obtained after a panning step of 8 min at 37°C to remove KCs. The purity of mLSECs was between 90 and 95% as judged by fenestration assessed by scanning electron microscopy and positive immunostaining for the LSEC specific marker, stabilin 2. The remaining 5–10% of cells in these cultures represented KCs/monocytes and stellate cells. […]
(§1) Primary cultures of mouse and human Heps and LSECs were seeded on Permanox chamber slides coated with human fibronectin. […] After removal of unbound ligand by extensive washing with PBS, the cultures were fixed with 4% PFA and processed for fluorescence microscopy as described above.
(§2) After the removal of unbound ligands by extensive washing with PBS, the cultures were fixed with 4% PFA and processed for fluorescence microscopy.
(§3) Primary cultures of hLSECs (A) and mLSECs (B) were established on Permanox chamber slides coated with human fibronectin. […] After removal of unbound ligands by extensive washing with PBS, the cultures were fixed with 4% PFA and processed for fluorescence microscopy.

Series [3] concerns human LSECs (hLSECs). The series is described as above. It is filed as cell-based. The following applies: primary hLSECs, 4 h serum starved, 100 μg/ml competitor pre-incubated 30 min, then 20 μg/ml FITC-fNLPNTL 60 min at 37°C.
Text: Human hepatocytes (hHeps) and LSECs (hLSECs) were isolated from encapsulated liver resections based on a method described elsewhere. The procedure involves collagenase perfusion through cut blood vessels exposed on the surface of the liver resection. hHeps were isolated by low speed differential centrifugation, and the hLSECs purified by immunomagnetic isolation using mouse anti-human CD32 (Fitzgeralg Industries International INC, North Acton, MA, USA) and Dynabeads® Sheep anti-mouse IgG (Thermo Scientific, Oslo, Norway). The viability of hLSECs as judged by trypan blue exclusion was 95%, and the yield of hLSECs varied from 1 to 10 million depending on the size of the liver resection. […]
as §1, §2, §3

The test system of series [4] is mouse Heps (mHeps). The series is described as above. It is filed as cell-based. As to conditions: primary mHeps, 4 h serum starved, 100 μg/ml competitor pre-incubated 30 min, then 20 μg/ml FITC-fNLPNTL 60 min at 37°C.
In series [5] the test system is human hepatocytes (hHeps). The description is as above. It is filed as cell-based. The following applies: primary hHeps, 4 h serum starved, 100 μg/ml competitor pre-incubated 30 min, then 20 μg/ml FITC-fNLPNTL 60 min at 37°C.
Text: Human hepatocytes (hHeps) and LSECs (hLSECs) were isolated from encapsulated liver resections based on a method described elsewhere. The procedure involves collagenase perfusion through cut blood vessels exposed on the surface of the liver resection. hHeps were isolated by low speed differential centrifugation, and the hLSECs purified by immunomagnetic isolation using mouse anti-human CD32 (Fitzgeralg Industries International INC, North Acton, MA, USA) and Dynabeads® Sheep anti-mouse IgG (Thermo Scientific, Oslo, Norway). The viability of hLSECs as judged by trypan blue exclusion was 95%, and the yield of hLSECs varied from 1 to 10 million depending on the size of the liver resection. The purity of the hLSECs isolation was between 85 and 95%, as judged by light microscopy. This variation in purity is due to donor variation. […]
as §1, §2

For the substance “Fluorescein-isothiocyanate- N-Formyl-Nle-Leu-Phe-Nle-Tyr-Lys [FITC-fNLPNTL, fluorescein isothiocyanate derivative of fNLPNTL from Thermo Scientific]”, the “uptake in the liver compared to that of native fNLPNTL” value in series [1] (30 min post injection) is “three-fold higher”. For the same substance, the “major organ of uptake” value in series [1] (organs analysed 30 min post injection after systemic perfusion, radioactivity as % of total recovered) was “liver”.
As to “FSA: Formaldehyde-treated bovine serum albumin, ligand specifically endocytosed by the LSECs scavenger receptors”, in series [2], the “inhibition of uptake of FITC-fNLPNTL in mLSECs by competitor” value is “inhibited”. The “inhibition of uptake of FITC-fNLPNTL in hLSECs by competitor” value in series [3] is on record as “inhibited”.
Regarding “N-Formyl-Nle-Leu-Phe-Nle-Tyr-Lys [fNLPNTL, N-formyl peptide purchased from Phoenix Pharmaceuticals]”, the “inhibition of uptake of FITC-fNLPNTL in mHeps by competitor” value in series [4] was “blocked”. For the same substance, the “inhibition of uptake of FITC-fNLPNTL in hHeps by competitor” value in series [5] is on record as “blocked”. The “inhibition of uptake of FITC-fNLPNTL in mLSECs by competitor” value in series [2] is recorded as “less marked effect”. In series [3], the “inhibition of uptake of FITC-fNLPNTL in hLSECs by competitor” value is recorded as “less marked effect”.
